NC(=O)c1cccnc1Cl
solubility (mole fraction)
Details | in 1,4-dioxane | in 2-ethoxyethanol | in 2-methoxyethanol | in DMAc | in DMF | in ethanol | in ethylene glycol | in methanol | in methyl acetate | in water
278.15 K | – | 0.0124 | 0.0205 | 0.132 | 0.0981 | 0.00303 | 0.00783 | 0.00747 | 0.00215 | 0.00081
283.15 K | – | 0.0154 | 0.0246 | 0.141 | 0.107 | 0.00366 | 0.00946 | 0.00893 | 0.00263 | 0.00102
288.15 K | 0.00632 | 0.0182 | 0.0293 | 0.152 | 0.115 | 0.00443 | 0.0114 | 0.0104 | 0.00331 | 0.00127
293.15 K | 0.0077 | 0.0224 | 0.0352 | 0.163 | 0.126 | 0.00539 | 0.0136 | 0.0122 | 0.0041 | 0.00157
298.15 K | 0.00958 | 0.0267 | 0.0413 | 0.175 | 0.137 | 0.00698 | 0.0167 | 0.0148 | 0.00506 | 0.00193
303.15 K | 0.0118 | 0.0311 | 0.0478 | 0.187 | 0.149 | 0.00821 | 0.0201 | 0.0171 | 0.00587 | 0.00237
308.15 K | 0.0136 | 0.0375 | 0.0542 | 0.199 | 0.161 | 0.0101 | 0.024 | 0.0204 | 0.00699 | 0.00291
313.15 K | 0.0168 | 0.0437 | 0.0642 | 0.213 | 0.175 | 0.0124 | 0.0283 | 0.0238 | 0.00885 | 0.00351
318.15 K | 0.02 | 0.0524 | 0.0747 | 0.227 | 0.188 | 0.0147 | 0.034 | 0.0278 | 0.0105 | 0.00437
323.15 K | 0.0244 | 0.0615 | 0.0856 | 0.24 | 0.202 | 0.0178 | 0.0403 | 0.0324 | 0.0127 | 0.00546

— BigSolDB 2.1
